Measurements taken from patent US11091496B2, “Opioid ketal compounds and uses thereof” (priority 2013, dated 2021).
Read-outs that look alike come from different tables or passages of the source.

Columns and labels:
[1] = Hydrolysis in Coca Cola, pH 4 buffer or pH 7 buffer, 3 days; type: physicochemical; details: 1 mg/ml; for Hydrolysis to Oxycodone: after 3 days
[2] = type: physicochemical; details: 0.1 N HCl 37° C.; for % Oxycodone, % IVA-IVD in hydrolysis mixture: total 1 mg/ml; for Oxycodone in hydrolysis mixture: from isomer IVC tested separately; for Oxycodone in hydrolysis mixture / % Oxycodone, % IVD in hydrolysis mixture / % Oxycodone, % Ketal a, b in hydrolysis mixture / % Oxycodone, % Ketal A, B in hydrolysis mixture: 1 mg/ml; for Oxycodone in hydrolysis mixture / % Oxycodone, % IVD in hydrolysis mixture: normalized; for % Oxycodone, % IVD in hydrolysis mixture: isomer IVD tested separately; for % Oxycodone, % Ketal a, b in hydrolysis mixture: mixture of oxycodone 3,5-octanediol ketals; for % Oxycodone, % Ketal A, B in hydrolysis mixture: mixture of oxycodone cis 1,2-cyclohexanedimethanol ketals
[3] = 5% acetic acid 100° C.; for % Oxycodone, % IVA-IVD in hydrolysis mixture: unreacted oxycodone + four isomers of Formula IV; for % Oxycodone, % IVA-IVD in hydrolysis mixture / % Oxycodone, % Va-Vd in hydrolysis mixture: 1 mg/ml; for % Oxycodone, % Va-Vd in hydrolysis mixture: unreacted oxycodone + four isomers of Formula V
[4] = Hydrolysis in fresh EDTA stabilized blood plasma at 37° C.; details: mixture of isomers, 1.1 mg, four hour period
[5] = Hydrolysis in Simulated Gastric Fluid (SGF) at 37° C., LC/MS; details: oxycodone 2,4-pentanediol ketal isomers + unreacted oxycodone, 2 mg/nil, SGF 37° C.

Structure (SMILES): COc1ccc2c3c1O[C@H]1C4(CCC5(O)[C@@H](C2)N(C)CC[C@]315)OC(C)CC(C)O4 (some centres unmarked) [Formula IV, oxycodone 2,4-pentanediol ketal]
- degree of hydrolysis after 3 days ([1]; Coca Cola, pH 4 buffer, pH 7 buffer): very low degree of hydrolysis
- Hydrolysis to Oxycodone ([1]; Coca Cola, 23° C.): 5%
- Hydrolysis to Oxycodone ([1]; pH 4 Buffer, 37° C.): 4%
- Hydrolysis to Oxycodone ([1]; pH 7 Buffer, 37° C.): 0%
- time at which about 50% of the oxycodone is released ([2]; mixture of isomers): about 2.9 hours
- time by which about (almost) 90% oxycodone release occurs ([2]; mixture of isomers): ≤ 25 h
- time to about 80% hydrolysis to oxycodone ([3]; FIG. 12): about 2 hours
- time to almost completely hydrolyze to oxycodone ([3]; FIG. 12, FIG. 13): about 10 hours
- ketal hydrolyzed to parent opioid in blood plasma [4]: approximately 6%

Structure (SMILES): COc1ccc2c3c1O[C@H]1C(=O)CC[C@@]4(O)[C@@H](C2)N(C)CC[C@]314 [Oxycodone, oxycodone, reference compound]
- % Oxycodone, % IVA-IVD in hydrolysis mixture ([2]; 0 h): 11.4%
- % Oxycodone, % IVA-IVD in hydrolysis mixture ([2]; 0.583 h): 25.5%
- % Oxycodone, % IVA-IVD in hydrolysis mixture ([2]; 1.167 h): 33%
- % Oxycodone, % IVA-IVD in hydrolysis mixture ([2]; 1.75 h): 44%
- % Oxycodone, % IVA-IVD in hydrolysis mixture ([2]; 2.33 h): 47.6%
- % Oxycodone, % IVA-IVD in hydrolysis mixture ([2]; 2.92 h): 50.9%
- % Oxycodone, % IVA-IVD in hydrolysis mixture ([2]; 4 h): 56.8%
- % Oxycodone, % IVA-IVD in hydrolysis mixture ([2]; 6.5 h): 66%
- % Oxycodone, % IVA-IVD in hydrolysis mixture ([2]; 9.75 h): 72.6%
- % Oxycodone, % IVA-IVD in hydrolysis mixture ([2]; 13.75 h): 79.7%
- % Oxycodone, % IVA-IVD in hydrolysis mixture ([2]; 25 h): 86.4%
- Oxycodone in hydrolysis mixture ([2]; 0 h): 1.3
- Oxycodone in hydrolysis mixture ([2]; 0.75 h): 28.5
- Oxycodone in hydrolysis mixture ([2]; 1.5 h): 46
- Oxycodone in hydrolysis mixture ([2]; 3.33 h): 81.2
- Oxycodone in hydrolysis mixture ([2]; 6 h): 95.3
- Oxycodone in hydrolysis mixture ([2]; 8 h): 97.9
- % Oxycodone, % IVD in hydrolysis mixture ([2]; 0 h): 0.8%
- % Oxycodone, % IVD in hydrolysis mixture ([2]; 0.17 h): 26.9%
- % Oxycodone, % IVD in hydrolysis mixture ([2]; 0.33 h): 55.2%
- % Oxycodone, % IVD in hydrolysis mixture ([2]; 1 h): 89.2%
- % Oxycodone, % IVD in hydrolysis mixture ([2]; 2 h): 98%
- % Oxycodone, % Ketal a, b in hydrolysis mixture ([2]; 0 h): 0.3%
- % Oxycodone, % Ketal a, b in hydrolysis mixture ([2]; 0.33 h): 12.1%
- % Oxycodone, % Ketal a, b in hydrolysis mixture ([2]; 1 h): 26.5%
- % Oxycodone, % Ketal a, b in hydrolysis mixture ([2]; 2 h): 40.7%
- % Oxycodone, % Ketal a, b in hydrolysis mixture ([2]; 4 h): 56.1%
- % Oxycodone, % Ketal A, B in hydrolysis mixture ([2]; 0 h): 27.2%
- % Oxycodone, % Ketal A, B in hydrolysis mixture ([2]; 0.56 h): 28.1%
- % Oxycodone, % Ketal A, B in hydrolysis mixture ([2]; 1.25 h): 33.8%
- % Oxycodone, % Ketal A, B in hydrolysis mixture ([2]; 2 h): 37.4%
- % Oxycodone, % Ketal A, B in hydrolysis mixture ([2]; 4.45 h): 56.4%
- Oxycodone, Ketal A-D in hydrolysis mixture ([5]; 0 h): 7.3
- Oxycodone, Ketal A-D in hydrolysis mixture ([5]; 0.58 h): 19.9
- Oxycodone, Ketal A-D in hydrolysis mixture ([5]; 1.25 h): 35.3
- Oxycodone, Ketal A-D in hydrolysis mixture ([5]; 2 h): 43
- Oxycodone, Ketal A-D in hydrolysis mixture ([5]; 3 h): 51
- Oxycodone, Ketal A-D in hydrolysis mixture ([5]; 4 h): 58.7
- % Oxycodone, % IVA-IVD in hydrolysis mixture ([3]; 0 h): 10.3%
- % Oxycodone, % IVA-IVD in hydrolysis mixture ([3]; 0.5 h): 55.8%
- % Oxycodone, % IVA-IVD in hydrolysis mixture ([3]; 1 h): 69.6%
- % Oxycodone, % IVA-IVD in hydrolysis mixture ([3]; 2 h): 83.9%
- % Oxycodone, % IVA-IVD in hydrolysis mixture ([3]; 4.35 h): 87.9%
- % Oxycodone, % IVA-IVD in hydrolysis mixture ([3]; 10 h): 95.2%
- % Oxycodone, % Va-Vd in hydrolysis mixture ([3]; 0 h): 1%
- % Oxycodone, % Va-Vd in hydrolysis mixture ([3]; 0.33 h): 31.8%
- % Oxycodone, % Va-Vd in hydrolysis mixture ([3]; 0.67 h): 46.4%
- % Oxycodone, % Va-Vd in hydrolysis mixture ([3]; 1 h): 56.5%
- % Oxycodone, % Va-Vd in hydrolysis mixture ([3]; 2 h): 72.8%
- % Oxycodone, % Va-Vd in hydrolysis mixture ([3]; 4 h): 85.4%
